Assay results as given in patent US9951077B2, “Aminopyridazinone compounds as protein kinase inhibitors” (ETERNITY BIOSCIENCE INC., priority 2014, dated 2018).

The compounds below were run against Btk (Homo sapiens (Human), UniProt Q06187) (assay: Btk kinase assay (ADP-Glo)). Details: ATP 1.2 μM, 60 minutes, room temperature; read-out: BTK enzyme IC50.
Sequence of Btk (Q06187 whole entry): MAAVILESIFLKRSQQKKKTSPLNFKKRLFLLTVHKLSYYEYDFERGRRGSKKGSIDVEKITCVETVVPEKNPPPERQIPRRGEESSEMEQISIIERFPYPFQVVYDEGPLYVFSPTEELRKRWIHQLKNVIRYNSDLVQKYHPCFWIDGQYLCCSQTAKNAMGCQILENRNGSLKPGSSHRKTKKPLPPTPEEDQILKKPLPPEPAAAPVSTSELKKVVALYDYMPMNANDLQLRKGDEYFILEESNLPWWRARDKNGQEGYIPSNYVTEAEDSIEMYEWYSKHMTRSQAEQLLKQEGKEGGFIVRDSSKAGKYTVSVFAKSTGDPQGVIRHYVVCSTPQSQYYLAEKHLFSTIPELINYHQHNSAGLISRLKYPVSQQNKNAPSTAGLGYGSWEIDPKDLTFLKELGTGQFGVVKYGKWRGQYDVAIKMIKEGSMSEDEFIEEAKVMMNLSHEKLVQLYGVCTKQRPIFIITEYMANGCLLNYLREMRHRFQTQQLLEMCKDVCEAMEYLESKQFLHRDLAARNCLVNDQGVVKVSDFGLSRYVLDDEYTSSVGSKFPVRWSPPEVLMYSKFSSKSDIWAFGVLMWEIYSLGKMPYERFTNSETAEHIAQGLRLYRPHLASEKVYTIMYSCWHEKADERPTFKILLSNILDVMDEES
Type: biochemical
Protocol: The Btk kinase assay was performed using a ADP-Glo Btk kinase assay kit purchased from Promega (Madison, Wis.). The assay was conducted according to the protocols provided in the assay kit. In brief, the enzyme reaction was carried out in the kinase reaction buffer containing Btk (2 ng/μl), ATP (1.2 μM), poly GT peptide (0.3 μM), DTT (40 nM), MnCl2 (1.4 mM), and 1×kinase buffer (included in the kit) in the presence or absence of the tested articles at various concentrations in 384-well plate at room temperature (22±1° C.) for 60 minutes. The final reaction volume for each reaction was 10 μl. Then, 4 μl of ADP-Glo reagent (included in the kit) was added into the reaction and the plate was further incubated for another 40 minutes to terminate the reaction and deplete the remaining ATP. Finally, 10 μl of the kinase detection reagent was added into each reaction to simultaneously convert ADP to ATP and allow the newly synthesized ATP to be measured by a plate-reading luminometer (Victor X5 2030 multilabel reader, PerkinElmer). IC50 value was calculated using appropriate programs in GraphPad Prism by plotting the logarithm of the concentration versus percent inhibition as compared with a vehicle (DMSO) control.
Nc1n[nH]c(=O)c2c1c(-c1ccc(Oc3ccccc3)cc1)cn2[C@@H]1CCCN(C(=O)/C=C/CN2CCC2)C1 [Example 33, 4-amino-1-[(3R)-1-[(E)-4-(azetidin-1-yl)but-2-enoyl]-3-piperidyl]-3-(4-phenoxyphenyl)-6H-pyrrolo[2,3-d]pyridazin-7-one] was tested, and the IC50 was ≤ 10 nM. Nc1n[nH]c(=O)c2c1c(-c1ccc(Oc3ccccc3)cc1)cn2[C@@H]1CCCN(C(=O)/C=C/CN2CCCC2)C1 [Example 34, 4-amino-3-(4-phenoxyphenyl)-1-[(3R)-1-[(E)-4-pyrrolidin-1-ylbut-2-enoyl]-3-piperidyl]-6H-pyrrolo[2,3-d]pyridazin-7-one] was tested, and the IC50 was ≤ 10 nM. For Nc1n[nH]c(=O)c2c1c(-c1ccc(Oc3ccccc3)cc1)cn2[C@@H]1CCCN(C(=O)/C=C/CN2CCOCC2)C1 [Example 35, 4-amino-1-[(3R)-1-[(E)-4-morpholinobut-2-enoyl]-3-piperidyl]-3-(4-phenoxyphenyl)-6H-pyrrolo[2,3-d]pyridazin-7-one], the IC50 was ≤ 10 nM. COC/C=C/C(=O)N1CCC[C@@H](n2cc(-c3ccc(Oc4ccccc4)cc3)c3c(N)n[nH]c(=O)c32)C1 [Example 37, 4-amino-1-[(3R)-1-[(E)-4-methoxybut-2-enoyl]-3-piperidyl]-3-(4-phenoxyphenyl)-6H-pyrrolo[2,3-d]pyridazin-7-one] was tested, and the IC50 was 1000 to 100000 nM. With CN(C)C/C=C/C(=O)N1CCCC(n2cc(-c3ccc(Oc4ccccc4)cc3)c3c(N)n[nH]c(=O)c32)C1 (stereo not shown) [Example 38, 4-amino-1-[1-[(E)-4-(dimethylamino)but-2-enoyl]-3-piperidyl]-3-(4-phenoxyphenyl)-6H-pyrrolo[2,3-d]pyridazin-7-one] the IC50 was ≤ 10 nM. In the case of CN(C)C/C=C/C(=O)N1CC[C@@H](n2cc(-c3ccc(Oc4ccccc4)cc3)c3c(N)n[nH]c(=O)c32)C1 [Example 39, 4-amino-1-[(3R)-1-[(E)-4-(dimethylamino)but-2-enoyl]pyrrolidin-3-yl]-3-(4-phenoxyphenyl)-6H-pyrrolo[2,3-d]pyridazin-7-one], the IC50 is reported as ≤ 10 nM. In the case of CN(C)C/C=C/C(=O)N1CC(n2cc(-c3ccc(Oc4ccccc4)cc3)c3c(N)n[nH]c(=O)c32)C1 [Example 40, 4-amino-1-[1-[(E)-4-(dimethylamino)but-2-enoyl]azetidin-3-yl]-3-(4-phenoxyphenyl)-6H-pyrrolo[2,3-d]pyridazin-7-one], the IC50 is reported as 10 to 1000 nM. In the case of CN(C)C/C=C/C(=O)N1CCC[C@H]1Cn1cc(-c2ccc(Oc3ccccc3)cc2)c2c(N)n[nH]c(=O)c21 [Example 41, 4-amino-1-[[(2S)-1-[(E)-4-(dimethylamino)but-2-enoyl]pyrrolidin-2-yl]methyl]-3-(4-phenoxyphenyl)-6H-pyrrolo[2,3-d]pyridazin-7-one], the IC50 is reported as 10 to 1000 nM. Compound CN(C)C/C=C/C(=O)N1CCC[C@@H]1Cn1cc(-c2ccc(Oc3ccccc3)cc2)c2c(N)n[nH]c(=O)c21 [Example 42, 4-amino-1-[[(2R)-1-[(E)-4-(dimethylamino)but-2-enoyl]pyrrolidin-2-yl]methyl]-3-(4-phenoxyphenyl)-6H-pyrrolo[2,3-d]pyridazin-7-one] has an IC50 of 1000 to 100000 nM. CN(C)C/C=C/C(=O)N1CCC(Cn2cc(-c3ccc(Oc4ccccc4)cc3)c3c(N)n[nH]c(=O)c32)C1 (stereo not shown) [Example 43, 4-amino-1-[[1-[(E)-4-(dimethylamino)but-2-enoyl]pyrrolidin-3-yl]methyl]-3-(4-phenoxyphenyl)-6H-pyrrolo[2,3-d]pyridazin-7-one] showed an IC50 of 10 to 1000 nM. In the case of CN(C)C/C=C/C(=O)N1CCC(n2cc(-c3ccc(Oc4ccccc4)cc3)c3c(N)n[nH]c(=O)c32)CC1 [Example 44, 4-amino-1-[1-[(E)-4-(dimethylamino)but-2-enoyl]-4-piperidyl]-3-(4-phenoxyphenyl)-6H-pyrrolo[2,3-d]pyridazin-7-one], the IC50 is reported as 10 to 1000 nM. Work on CN(C)C/C=C/C(=O)N1C[C@H](n2cc(-c3ccc(Oc4ccccc4)cc3)c3c(N)n[nH]c(=O)c32)CC(F)(F)C1 [Example 49, 4-amino-1-[(3R)-1-[(E)-4-(dimethylamino)but-2-enoyl]-5,5-difluoro-3-piperidyl]-3-(4-phenoxyphenyl)-6H-pyrrolo[2,3-d]pyridazin-7-one] yielded an IC50 of 10 to 1000 nM. N#C/C(=C\C1CC1)C(=O)N1CCC[C@@H](n2cc(-c3ccc(Oc4ccccc4)cc3)c3c(N)n[nH]c(=O)c32)C1 [Example 50, (E)-2-[(3R)-3-[4-amino-7-oxo-3-(4-phenoxyphenyl)-6H-pyrrolo[2,3-d]pyridazin-1-yl]piperidine-1-carbonyl]-3-cyclopropyl-prop-2-enenitrile] showed an IC50 of 10 to 1000 nM. In the case of C=CC(=O)N1CCCC(n2cc(-c3ccc(OC)cc3)c3c(N)n[nH]c(=O)c32)C1 (stereo not shown) [Example 51, 1-(1-acryloylpiperidin-3-yl)-4-amino-3-(4-methoxyphenyl)-1H-pyrrolo[2,3-d]pyridazin-7(6H)-one], the IC50 is reported as ≤ 10 nM. In the case of COc1ccc(-c2cn(C3CCCN(C(=O)/C=C/CN(C)C)C3)c3c(=O)[nH]nc(N)c23)cc1 (stereo not shown) [Example 52, 4-amino-1-[1-[(E)-4-(dimethylamino)but-2-enoyl]-3-piperidyl]-3-(4-methoxyphenyl)-6H-pyrrolo[2,3-d]pyridazin-7-one], the IC50 is reported as ≤ 10 nM. For C=CC(=O)N1CCCC(n2cc(-c3ccc(OC)c(Cl)c3)c3c(N)n[nH]c(=O)c32)C1 (stereo not shown) [Example 53, 1-(1-acryloylpiperidin-3-yl)-4-amino-3-(3-chloro-4-methoxyphenyl)-1H-pyrrolo[2,3-d]pyridazin-7(6H)-one], the IC50 was ≤ 10 nM. With COc1ccc(-c2cn(C3CCCN(C(=O)/C=C/CN(C)C)C3)c3c(=O)[nH]nc(N)c23)cc1Cl (stereo not shown) [Example 54, 4-amino-3-(3-chloro-4-methoxy-phenyl)-1-[1-[(E)-4-(dimethylamino)but-2-enoyl]-3-piperidyl]-6H-pyrrolo[2,3-d]pyridazin-7-one] the IC50 was ≤ 10 nM. For C=CC(=O)N1CCCC(n2cc(-c3ccc(Oc4ccccc4F)cc3)c3c(N)n[nH]c(=O)c32)C1 (stereo not shown) [Example 55, 1-(1-acryloylpiperidin-3-yl)-4-amino-3-(4-(2-fluorophenoxy)phenyl)-1H-pyrrolo[2,3-d]pyridazin-7(6H)-one], the IC50 was ≤ 10 nM. For C=CC(=O)N1CCC[C@@H](n2cc(-c3ccc(Oc4ccccc4F)cc3)c3c(N)n[nH]c(=O)c32)C1 [Example 56, (R)-1-(1-acryloylpiperidin-3-yl)-4-amino-3-(4-(2-fluorophenoxy)phenyl)-1H-pyrrolo[2,3-d]pyridazin-7(6H)-one], the IC50 was ≤ 10 nM. With CN(C)C/C=C/C(=O)N1CCC[C@@H](n2cc(-c3ccc(Oc4ccccc4F)cc3)c3c(N)n[nH]c(=O)c32)C1 [Example 57, 4-amino-1-[(3R)-1-[(E)-4-(dimethylamino)but-2-enoyl]-3-piperidyl]-3-[4-(2-fluorophenoxy)phenyl]-6H-pyrrolo[2,3-d]pyridazin-7-one] the IC50 was ≤ 10 nM. CN(C)C/C=C/C(=O)N1CCC[C@@H](n2cc(-c3ccc(Oc4c(F)cccc4F)cc3)c3c(N)n[nH]c(=O)c32)C1 [Example 59, 4-amino-3-[4-(2,6-difluorophenoxy)phenyl]-1-[(3R)-1-[(E)-4-(dimethylamino)but-2-enoyl]-3-piperidyl]-6H-pyrrolo[2,3-d]pyridazin-7-one] gave an IC50 of 10 to 1000 nM. C=CC(=O)N1CCCC(n2cc(-c3ccc(Oc4ccc(F)cc4)cc3)c3c(N)n[nH]c(=O)c32)C1 (stereo not shown) [Example 60, 1-(1-acryloylpiperidin-3-yl)-4-amino-3-(4-(4-fluorophenoxy)phenyl)-1H-pyrrolo[2,3-d]pyridazin-7(6H)-one] gave an IC50 of 10 to 1000 nM. CN(C)C/C=C/C(=O)N1CCCC(n2cc(-c3ccc(Oc4ccc(F)cc4)cc3)c3c(N)n[nH]c(=O)c32)C1 (stereo not shown) [Example 61, 4-amino-1-[1-[(E)-4-(dimethylamino)but-2-enoyl]-3-piperidyl]-3-[4-(4-fluorophenoxy)phenyl]-6H-pyrrolo[2,3-d]pyridazin-7-one] was tested, and the IC50 was 10 to 1000 nM. C=CC(=O)N1CCCC(n2cc(-c3ccc(Oc4cccc(F)c4)cc3)c3c(N)n[nH]c(=O)c32)C1 (stereo not shown) [Example 62, 1-(1-acryloylpiperidin-3-yl)-4-amino-3-(4-(3-fluorophenoxy)phenyl)-1H-pyrrolo[2,3-d]pyridazin-7(6H)-one] showed an IC50 of 10 to 1000 nM. For CN(C)C/C=C/C(=O)N1CCCC(n2cc(-c3ccc(Oc4cccc(F)c4)cc3)c3c(N)n[nH]c(=O)c32)C1 (stereo not shown) [Example 63, 4-amino-1-[1-[(E)-4-(dimethylamino)but-2-enoyl]-3-piperidyl]-3-[4-(3-fluorophenoxy)phenyl]-6H-pyrrolo[2,3-d]pyridazin-7-one], the IC50 was ≤ 10 nM. For C=CC(=O)N1CCCC(n2cc(-c3ccc(Oc4ccc(Cl)cc4)cc3)c3c(N)n[nH]c(=O)c32)C1 (stereo not shown) [Example 64, 1-(1-acryloylpiperidin-3-yl)-4-amino-3-(4-(4-chlorophenoxy)phenyl)-1H-pyrrolo[2,3-d]pyridazin-7(6H)-one], the IC50 was 10 to 1000 nM. CN(C)C/C=C/C(=O)N1CCCC(n2cc(-c3ccc(Oc4ccc(Cl)cc4)cc3)c3c(N)n[nH]c(=O)c32)C1 (stereo not shown) [Example 65, 4-amino-3-[4-(4-chlorophenoxy)phenyl]-1-[1-[(E)-4-(dimethylamino)but-2-enoyl]-3-piperidyl]-6H-pyrrolo[2,3-d]pyridazin-7-one] was tested, and the IC50 was 10 to 1000 nM. For C=CC(=O)N1CCCC(n2cc(-c3ccc(Oc4cccc(Cl)c4)cc3)c3c(N)n[nH]c(=O)c32)C1 (stereo not shown) [Example 66, 1-(1-acryloylpiperidin-3-yl)-4-amino-3-(4-(3-chlorophenoxy)phenyl)-1H-pyrrolo[2,3-d]pyridazin-7(6H)-one], the IC50 was 10 to 1000 nM.
